The numbers were not newly measured in patent US20040053391A1, “Renal cell carcinoma-antigen G250-derived peptides that elicit both CD4+ and CD8+ T-cell responses” (Katholieke Universiteit Nijmegen, priority 2002, published 2004), which cites them from elsewhere.

In this series the test system is CD8+CTL's. The note with it: HLA-A2.1; Vissers et al. 1999, WO 01/98363.

Turning to “G250 amino acid sequence from 254 to 262: previously identified HLA-A2.1-restricted CTL epitope of G250, comprised within 249-268 (HLSTAFARV; UniProt Q16790 254-262, looked up, fragment)”, the CTL epitope character entry is “HLA-A2.1-restricted CTL epitope that is both naturally processed and immunogenic”.
